“Also recorded” adds a separate entry of the source.
Experiments:
Format in all cases: cell-based, human
miR-21 = assay: Luc-miR-21 luciferase reporter assay in HeLa cells; settings: for Luciferase Assay: HeLa cells with Luc-miR-21 reporter, screen at 10 μM, 48 hours
From the text: (§1) MicroRNA miR-21 was selected as a target miRNA due to its involvement as an anti-apoptotic factor in cancer cells and its elevated levels in various cancers such as breast, ovarian, and lung cancer as well as glioblastoma (Chan, et al. (2005) Cancer Res. 65:6029). Lentiviral reporter constructs for miRNA activity were assembled by introducing the complementary sequences of mature miR-21 (5′-UAGCUUAUCAGACUGAUGUUGA-3′; SEQ ID NO:13), miR-30A (5′-CUUUCAGUCGGAUGUUUGCAGC-3′; SEQ ID NO:14) as a specificity control, and a linker sequence (a previously present multiple-cloning site with no detectable recognition by natural miRNAs) downstream of a luciferase reporter gene as a negative control (FIG. 1).
(§2) Luc-miR-21, Luc-miR-30A, and Luc-linker (control) were, by viral infection, introduced into HeLa cells, which express high levels of miR-21, but only low levels of miR-30A (Cheng, et al. (2005) Nucl. Acids Res. 33:1290).
To illustrate the method of the present invention, a primary screen of >1000 compounds was conducted. The library was composed of a collection of novel compounds and the Library of Pharmacologically Active Compounds (LOPAC library, Sigma-Aldrich, St Louis, Mo.). All compounds were stored at a 10 mM concentration in DMSO to keep the DMSO concentration in the actual screen at 0.1% thereby minimizing toxicity. HeLa cells stably expressing the miR-reporter were treated with DMSO ranging from 0.1-1%. Luciferase signals were determined 48 hours after the treatment.
HeLa cells (2500 cells) were plated in each well of 384-well plate 24 hour before the addition of compounds. Compounds at 10 μM final concentration were added to each well. Luciferase signal were determined 48 hours after compound treatment. Using this screening assay, compound 1 was identified as a miR-21 antagonist.

mature miR-21 = assay: Quantitative RT-PCR of mature miR-21; settings: for mature miR-21 expression upon treatment: HCT116 colon cancer cells and A172 glioblastoma cells
From the text: (§3) UNG (Applied Biosystems). […] (Sigma). […] ID NO:18); E-cadherin: forward [NT] ID NO:19), reverse [NT] ID NO:20); Fibronectin: forward [NT] ID NO:21), reverse [NT] ID NO:22); RAP1A: forward [NT] ID NO:23), reverse [NT]

[1] = system: primary miR-21 (pri-miR-21); assay: Quantitative RT-PCR of primary miR-21; settings: for primary miR-21 expression upon treatment: HCT116 colon cancer cells and A172 glioblastoma cells
From the text: UNG (Applied Biosystems). […] (Sigma).

Luc-Linker control = Luc-Linker control luciferase reporter in HeLa cells; settings: 10 μM, relative to DMSO, listed as diazobenzene 2
From the text: as §1, §2
(§4) It was subsequently determined whether Compound 2 was a specific inhibitor of miR-21 or whether it could interfere with the general miRNA biogenesis pathway. Thus, HeLa cells stably expressing both the miR-30 luciferase reporter construct and miR-30 were treated with Compound 2.

miR-30 = miR-30 luciferase reporter in HeLa cells expressing miR-30; settings: HeLa cells expressing miR-30 reporter and miR-30, 10 μM
From the text: as §1
The specificity of the reporter system was tested by assaying cells which contained both the Luc-miR-30A reporter and a construct expressing exogenous miR-30.
as §4

mature miR-30 = assay: Quantitative RT-PCR of mature miR-30; settings: MDA-MB-231, MCF-7 and A172 cell lines
From the text: as §3

mature miR-93 = assay: Quantitative RT-PCR of mature miR-93; settings: MDA-MB-231, MCF-7 and A172 cell lines
From the text: as §3

[2] = system: HCT116 colon cancer cells; assay: Cell proliferation of HCT116 cells, drug combinations
From the text: The % activity indicates % live cell activity.

[3] = MDA-MB-231, MCF-7 and A172 cell lines

For Cn1c2c(c3ccccc3c1=O)C(=O)c1cc3c(cc1-2)OCO3 [Compound 4], the “Luciferase Assay” value (miR-21) was 3.12.
With COc1ccc2c(c1[N+](=O)[O-])CCC1C2CC[C@]2(C)C(=O)CCC12 (stereo partly shown) [Compound 6] the “Luciferase Assay” value (miR-21) was 3.34.
In the case of COc1ccc2c(c1N)CCC1C2CC[C@]2(C)C(=O)CCC12 (stereo partly shown) [Compound 7], the “Luciferase Assay” value (miR-21) is reported as 3.04-3.87.
With C[C@]12CC[C@@H]3c4ccc(O)cc4CC[C@H]3[C@@H]1CCC2=O [Estrone, estrone, reference compound] the “Luciferase Assay” value (miR-21) was 2.76.
With C#CCNC(=O)c1ccc(NNc2ccccc2)cc1 [Compound 3] the “Luciferase Assay” value (miR-21) was 3.67.
With COc1cc2c(cc1N)C1CC[C@]3(C)C(=O)CCC3C1CC2 (stereo partly shown) [Compound 8] the “Luciferase Assay” value (miR-21) was 3.50.
COc1cc(/C=C/C(=O)CC(=O)/C=C/c2ccc(O)c(OC)c2)ccc1O [Curcumin, curcumin] was tested, and the “mature miR-21 expression upon treatment” value (mature miR-21) was “increased” and the “primary miR-21 expression upon treatment” value [1] was “increased”.
For C#CCNC(=O)c1ccc(/N=N/c2ccccc2)cc1 [Compound 2, (E)-4-(Phenyldiazenyl)-N-(prop-2-ynyl)benzamide], the “fold increase of the luciferase signal” value (miR-21; 10 μM, HeLa cells) was 5 fold, the “Luciferase Assay” value (miR-21) was 4.83 and the “effect on luciferase signal, Luc-Linker control” value (Luc-Linker control) was “does not affect; also recorded: did not affect the luciferase signal”. The “effect on luciferase signal, miR-30 reporter” value (miR-30) was “no increase of the luciferase signal was detected”, the “effect on luciferase signal, miR-30 reporter” value (miR-30; listed as diazobenzene 2) was “does not affect” and the “effect on mature miR-21” value (mature miR-21; [3]) was “suppressed”. For the same compound, the “effect on mature miR-30” value (mature miR-30) was “no effect”, the “effect on mature miR-93” value (mature miR-93) was “no effect” and the “effect on primary miR-21” value [1, 3] was “suppressed”. For the same compound, the “proliferation of HCT116 cells, combination with 5-FU” value ([2]; combination with 5-FU) was “synergistic effect; also recorded: synergistically decrease the proliferation” and the “proliferation of HCT116 cells, combination with Curcumin” value ([2]; combination with Curcumin) was “synergistic effect; also recorded: synergistically decrease the proliferation”.
In the case of O=C1c2cc3c(cc2-c2[nH]c(=O)c4ccccc4c21)OCO3 [Compound 5], the “Luciferase Assay” value (miR-21) is reported as 2.92.
In the case of O=c1[nH]cc(F)c(=O)[nH]1 [Compound 5-FU, 5-fluorouracil], the “mature miR-21 expression upon treatment” value (mature miR-21) is reported as “increased” and the “primary miR-21 expression upon treatment” value [1] is reported as “increased”.
